Results: patent US9701680B2, “Pyrimidine and pyridine compounds and their usage” (HUTCHISON MEDIPHARMA LIMITED, priority 2013, dated 2017)
Where two headings read alike, the source gives them in different places.

How the values were obtained:
[1] = molecular target: Recombinant human FGFR1 (Homo sapiens, UniProt P11362); assay: Transcreener Kinase Assay of FGFR1; format: biochemical
Summary of the method: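 Recombinant human FGFR1 was reacted with Poly E4Y substrate and ATP for 45 min at 28 °C, with compounds at 1 to 0.0005 µM in 1% DMSO final. Inhibition is relative to the DMSO control, with IC50 from a curve fit.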

[2] = molecular target: Recombinant human FGFR2 (Homo sapiens, UniProt P21802); assay: Transcreener Kinase Assay of FGFR2; format: biochemical
Recombinant human FGFR2, sequence (P21802 22-821): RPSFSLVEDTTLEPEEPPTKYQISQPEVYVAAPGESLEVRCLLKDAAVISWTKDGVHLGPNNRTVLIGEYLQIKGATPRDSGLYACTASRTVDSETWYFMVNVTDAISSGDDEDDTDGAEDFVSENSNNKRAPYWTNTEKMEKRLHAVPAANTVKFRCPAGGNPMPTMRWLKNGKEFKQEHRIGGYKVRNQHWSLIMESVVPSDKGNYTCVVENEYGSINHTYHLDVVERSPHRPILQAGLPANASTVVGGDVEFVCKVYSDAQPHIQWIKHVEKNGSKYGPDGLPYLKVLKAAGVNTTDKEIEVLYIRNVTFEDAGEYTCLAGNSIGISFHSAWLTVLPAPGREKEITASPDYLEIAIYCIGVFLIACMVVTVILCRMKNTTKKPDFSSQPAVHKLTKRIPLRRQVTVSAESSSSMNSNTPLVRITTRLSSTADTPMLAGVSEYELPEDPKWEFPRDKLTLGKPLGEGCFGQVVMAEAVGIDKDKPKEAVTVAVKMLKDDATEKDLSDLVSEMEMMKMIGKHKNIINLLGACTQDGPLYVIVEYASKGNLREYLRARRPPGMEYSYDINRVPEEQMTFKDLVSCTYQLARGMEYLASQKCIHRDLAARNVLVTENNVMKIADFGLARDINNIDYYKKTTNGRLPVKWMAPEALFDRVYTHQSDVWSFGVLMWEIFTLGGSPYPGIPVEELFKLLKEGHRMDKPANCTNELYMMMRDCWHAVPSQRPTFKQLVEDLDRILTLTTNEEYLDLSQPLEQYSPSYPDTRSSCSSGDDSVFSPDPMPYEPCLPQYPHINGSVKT

[3] = molecular target: FGFR3 kinase (Homo sapiens, UniProt P22607); assay: Z-Lyte Kinase Assay of FGFR3; format: biochemical
FGFR3 kinase, sequence (P22607 23-806): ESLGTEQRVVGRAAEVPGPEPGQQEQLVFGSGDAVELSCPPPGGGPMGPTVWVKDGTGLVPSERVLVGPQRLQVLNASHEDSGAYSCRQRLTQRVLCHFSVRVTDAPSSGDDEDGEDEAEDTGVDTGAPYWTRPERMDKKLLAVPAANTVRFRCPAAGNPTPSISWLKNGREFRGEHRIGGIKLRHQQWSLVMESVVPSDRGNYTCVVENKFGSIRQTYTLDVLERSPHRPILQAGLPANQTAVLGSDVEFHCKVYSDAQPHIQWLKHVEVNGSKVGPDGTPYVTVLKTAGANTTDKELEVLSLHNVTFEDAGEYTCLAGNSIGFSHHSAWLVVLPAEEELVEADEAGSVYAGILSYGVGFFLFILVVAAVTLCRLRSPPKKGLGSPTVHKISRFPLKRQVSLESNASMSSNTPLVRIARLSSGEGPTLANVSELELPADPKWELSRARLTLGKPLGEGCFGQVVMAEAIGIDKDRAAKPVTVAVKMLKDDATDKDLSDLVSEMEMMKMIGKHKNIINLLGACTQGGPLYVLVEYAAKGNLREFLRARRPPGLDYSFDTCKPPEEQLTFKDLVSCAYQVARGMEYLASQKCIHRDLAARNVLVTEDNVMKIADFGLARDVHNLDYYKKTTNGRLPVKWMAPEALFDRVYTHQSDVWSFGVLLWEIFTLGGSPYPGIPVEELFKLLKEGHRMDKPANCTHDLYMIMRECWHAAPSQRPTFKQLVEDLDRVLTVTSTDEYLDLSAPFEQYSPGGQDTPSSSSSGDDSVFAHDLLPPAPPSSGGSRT
Summary of the method: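 Z-LYTE FRET assay, kinase 0.7 μg/ml with Tyr 4 peptide 4 μM (P/K solution), ATP diluted to 300 uM in 1.33× buffer; compound final 1 to 0.00046 μM, 2% DMSO.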

[4] = system: KG-1; assay: Cellular Proliferation Assay (Cell Counting Kit-8), KG-1; format: cell-based; conditions: Homo sapiens; KG-1 cells, 72 hours; read-out: KG1 IC50
Summary of the method: (§1)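 Seeding per well: KG-1 30000, SNU-16 5000, RT-112 1000 cells. After 24 h an 8-point series (working dilutions 10 to 0.004 μM in 5% DMSO) was added for 72 h at 37 °C, 5% CO2. CCK-8 OD450 after 1 h, corrected for media background and normalised to untreated cells, gave IC50.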

[5] = system: SNU-16; assay: Cellular Proliferation Assay (Cell Counting Kit-8), SNU-16; format: cell-based; conditions: Homo sapiens; SNU-16 cells, 72 hours
Summary of the method: as §1

[6] = system: RT-112; assay: Cellular Proliferation Assay (Cell Counting Kit-8), RT-112; format: cell-based; conditions: Homo sapiens; RT-112 cells, 72 hours
Summary of the method: as §1

Recombinant human FGFR1, sequence (P11362 22-822): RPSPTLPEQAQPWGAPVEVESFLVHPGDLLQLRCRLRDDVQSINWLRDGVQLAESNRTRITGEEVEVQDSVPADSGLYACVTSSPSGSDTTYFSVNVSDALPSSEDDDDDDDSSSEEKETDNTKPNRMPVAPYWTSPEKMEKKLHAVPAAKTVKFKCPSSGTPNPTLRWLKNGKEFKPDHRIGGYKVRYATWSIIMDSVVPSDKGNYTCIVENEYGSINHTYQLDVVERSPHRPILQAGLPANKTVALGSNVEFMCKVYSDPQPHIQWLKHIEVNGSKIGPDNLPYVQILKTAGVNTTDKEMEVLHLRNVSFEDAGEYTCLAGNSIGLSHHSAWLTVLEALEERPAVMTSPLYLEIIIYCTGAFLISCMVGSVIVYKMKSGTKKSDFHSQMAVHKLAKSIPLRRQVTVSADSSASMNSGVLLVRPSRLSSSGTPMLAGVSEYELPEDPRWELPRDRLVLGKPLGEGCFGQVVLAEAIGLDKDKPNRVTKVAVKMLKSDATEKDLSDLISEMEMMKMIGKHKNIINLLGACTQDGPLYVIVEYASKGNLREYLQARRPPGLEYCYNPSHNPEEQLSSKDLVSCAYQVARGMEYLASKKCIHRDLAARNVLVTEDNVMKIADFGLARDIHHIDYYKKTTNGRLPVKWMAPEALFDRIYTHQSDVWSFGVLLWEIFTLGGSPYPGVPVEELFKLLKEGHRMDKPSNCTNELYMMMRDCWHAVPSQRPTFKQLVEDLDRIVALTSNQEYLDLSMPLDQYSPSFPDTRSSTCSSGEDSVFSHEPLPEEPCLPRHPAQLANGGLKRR

IC50 ([1]; read-out: FGFR1 (FP) IC50)	IC50 ([2]; read-out: FGFR2 (FP) IC50)	IC50 [3]	IC50 [5]	IC50 ([1]; FP)	IC50 ([2]; FP)	IC50 ([3]; Z-lyte)	Structure (SMILES)	IC50 [4]	IC50 [6]
10 nM	10 nM	13 nM	115 nM				CNC(=O)c1cc(COc2cnc(Nc3ccc([C@@H]4CCCNC4)nc3)nc2)c(Cl)c(OC)c1 [Compound 244]	362 nM	585 nM
			14 nM	9 nM	8 nM	13 nM	CNC(=O)c1cc(OC)c(Cl)c(COc2cnc(Nc3ccc(N4C[C@@H](C)N[C@@H](C)C4)c(C)c3)nc2)c1F [Compound 298]	8 nM	15 nM
			14 nM	11 nM	8 nM	8 nM	CNC(=O)c1cc(COc2cnc(Nc3cnc(N4C[C@@H](C)N[C@@H](C)C4)c(C)c3)nc2)c(Cl)c(OC)c1 [Compound 287]	54 nM	35 nM
31 nM	21 nM	19 nM	31 nM				CCCN1CC(c2ccc(Nc3ncc(OCc4cc(C(=O)NC)cc(OC)c4F)cn3)cn2)C1 [Compound 241]	162 nM	112 nM
			11 nM	6 nM	6 nM	8 nM	CNC(=O)c1cc(OC)c(Cl)c(COc2cnc(Nc3ccc(N4C[C@@H](C)N[C@@H](C)C4)c(F)c3)nc2)c1F [Compound 299]	7 nM	15 nM
			11 nM	9 nM	6 nM	10 nM	CNC(=O)c1cc(COc2cnc(Nc3cccc(CCN4CCN(CCOC)CC4)c3)nc2)c(F)c(OC)c1 [Compound 301]	24 nM	37 nM
			104 nM	13 nM	13 nM	19 nM	CCN(CC)CCNC(C)c1ccc(Nc2ncc(OCc3cc(C(=O)NC)cc(OC)c3Cl)cn2)cc1 (stereo not drawn) [Compound 295]	40 nM	337 nM
14 nM	9 nM	14 nM	18 nM				CNC(=O)c1cc(OC)c(F)c(COc2cnc(Nc3cccc(N4C[C@@H](C)N[C@@H](C)C4)c3)nc2)c1F [Compound 275]	46 nM	62 nM
10 nM	5 nM	6 nM	8 nM				CNC(=O)c1cc(COc2cnc(Nc3ccc(N4CCC(N(C)C)CC4)cc3)nc2)c(F)c(OC)c1 [Compound 264]	7 nM	8 nM
			17 nM	17 nM	18 nM	17 nM	CNC(=O)c1cc(OC)c(Cl)c(COc2cnc(Nc3ccc(N4C[C@@H](C)N[C@@H](C)C4)nc3)nc2)c1F [Compound 291]	15 nM	27 nM
			11 nM	10 nM	7 nM	11 nM	CNC(=O)c1cc(OC)c(Cl)c(COc2cnc(Nc3ccc(N4C[C@@H](C)N[C@@H](C)C4)cc3)nc2)c1F [Compound 290]	6 nM	12 nM
			23 nM	11 nM	7 nM	7 nM	CNC(=O)c1cc(COc2cnc(Nc3ccc(O[C@@H]4O[C@H](CO)[C@@H](O)[C@H](O)[C@H]4O)cc3)nc2)c(Cl)c(OC)c1 [Compound 303]	40 nM	64 nM
6 nM	6 nM	8 nM	17 nM				CNC(=O)c1cc(COc2cnc(Nc3ccc(N4C[C@@H](C)N(C)[C@@H](C)C4)cc3)nc2)c(F)c(OC)c1 [Compound 267]	28 nM	33 nM
			1 nM	19 nM	17 nM	21 nM	CCN1CCN(c2ccc(Nc3ncc(C#Cc4cc(C(=O)NC)cc(OC)c4F)cn3)cc2OC)CC1 [Compound 307]	5 nM	5 nM
			5 nM	18 nM	9 nM	7 nM	CNC(=O)c1cc(COc2cnc(Nc3ccc(N4C[C@@H](C)N[C@@H](C)C4)c(OC)c3)nc2)c(F)c(OC)c1 [Compound 282]	46 nM	5 nM

Continued, compound first:

Structure (SMILES)	IC50 ([1]; read-out: FGFR1 (FP) IC50)	IC50 ([2]; read-out: FGFR2 (FP) IC50)	IC50 [3]	IC50 [5]	IC50 ([1]; FP)	IC50 ([2]; FP)	IC50 ([3]; Z-lyte)	IC50 [4]	IC50 [6]
CNC(=O)c1cc(COc2cnc(Nc3ccc4c(c3)NCC4)nc2)c(F)c(OC)c1 [Compound 214]	67 nM	25 nM	19 nM	27 nM				6 nM	90 nM
CCN1CCc2cc(Nc3ncc(OCc4cc(C(=O)NC)cc(OC)c4F)cn3)ccc21 [Compound 224]	65 nM	27 nM	56 nM	56 nM				63 nM	234 nM
CNC(=O)c1cc(CCc2cnc(Nc3ccc(N4CCN(C)CC4)c(OC)c3)nc2)c(F)c(OC)c1 [Compound 172]	7 nM	6 nM	6 nM	4 nM				13 nM	12 nM
CNC(=O)c1cc(CCc2cnc(Nc3ccc(N4C[C@@H](C)N(C)[C@@H](C)C4)nc3)nc2)c(Cl)c(OC)c1 [Compound 158]	14 nM	7 nM	6 nM	7 nM				16 nM	29 nM
CCCN1CC(c2ccc(Nc3ncc(OCc4cc(C(=O)NC)cc(OC)c4F)cn3)cc2)C1 [Compound 240]	34 nM	23 nM	23 nM	39 nM				23 nM	56 nM
CNC(=O)c1cc(COc2cnc(Nc3ccc(-c4cnn(C)c4)cc3)nc2)c(F)c(OC)c1 [Compound 228]	29 nM	18 nM	120 nM	97 nM				94 nM	270 nM
CNC(=O)c1cc(COc2cnc(Nc3ccc(=O)n(C4CCCC4)c3)nc2)c(F)c(OC)c1 [Compound 237]	66 nM	27 nM	29 nM	42 nM				79 nM	134 nM
CNC(=O)c1cc(COc2cnc(Nc3ccc(-n4ccnn4)cc3)nc2)c(F)c(OC)c1 [Compound 222]	39 nM	12 nM	40 nM	34 nM				52 nM	83 nM
CNC(=O)c1cc(CCc2cnc(Nc3ccc(N)cc3)nc2)c(Cl)c(OC)c1 [Compound 80]	10 nM	11 nM	13 nM	18 nM				13 nM	44 nM
CNC(=O)c1cc(COc2cnc(Nc3cccc(-n4ccnn4)c3)nc2)c(Cl)c(OC)c1 [Compound 234]	6 nM	4 nM	30 nM	15 nM				14 nM	35 nM
CNC(=O)c1cc(COc2cnc(Nc3ccc4c(c3)NC(=O)C4(C)C)nc2)c(F)c(OC)c1 [Compound 230]	101 nM	32 nM	45 nM	14 nM				76 nM	26 nM
CNC(=O)c1cc(COc2cnc(Nc3cccc(S(C)(=O)=O)c3)nc2)c(F)c(OC)c1 [Compound 227]	23 nM	8 nM	25 nM	20 nM				35 nM	85 nM
